From the supplement of paper PMC10307832

What was measured:
Assay in all cases: relative viability (nuclei count vs DMSO), 5 days (fraction); higher = more cells survive
[1] = compound: CC1=CC(=CC=C1)NC2=NC(=CS2)C3=CC=NC=C3 + NC(=O)Nc1cc(-c2cccc(F)c2)sc1C(=O)N[C@H]1CCCNC1 [AZD7762] (partner 0.2 µM)
How it was run: (§1)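 Relative viability divides the nuclei count in treated wells by that in vehicle wells. Lung cancer cell lines were seeded in 1536-well plates, dosed by pin tool the next day, and fixed and stained after 5 days in one step with final 0.05% Triton X-100, 1% formaldehyde and 1 ug/ml Hoechst. Dosing was a single drug or a fixed anchor-drug dose plus five library-drug doses (not always all listed) in √10 steps, and values are medians of duplicate plates imaged at 4×.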

[2] = compound: CC1=CC(=CC=C1)NC2=NC(=CS2)C3=CC=NC=C3 + COc1cccc2cc(-c3nc([C@H]4CC[C@H](C(=O)O)CC4)n4ncnc(N)c34)[nH]c12 [OSI-027] (partner 0.5 µM)
How it was run: as §1

[3] = compound: CC1=CC(=CC=C1)NC2=NC(=CS2)C3=CC=NC=C3 + Cc1cc(Nc2cc(N3CCN(C)CC3)nc(Sc3ccc(NC(=O)C4CC4)cc3)n2)n[nH]1 [Tozasertib] (partner 0.1 µM)
How it was run: as §1

Masitinib + Alpelisib = compound: Cc1ccc(NC(=O)c2ccc(CN3CCN(C)CC3)cc2)cc1Nc1nc(-c2cccnc2)cs1 [Masitinib] + Cc1nc(NC(=O)N2CCC[C@H]2C(N)=O)sc1-c1ccnc(C(C)(C)C(F)(F)F)c1 [Alpelisib] (partner 2 µM)
How it was run: as §1

Row | Cell Line | relative viability ([1]; first compound 0.08 µM) | relative viability ([1]; first compound 0.253 µM) | relative viability ([1]; first compound 0.8 µM) | relative viability ([1]; first compound 2.53 µM) | relative viability ([1]; first compound 8 µM) | relative viability ([2]; first compound 0.08 µM) | relative viability ([2]; first compound 0.253 µM) | relative viability ([2]; first compound 0.8 µM) | relative viability ([2]; first compound 2.53 µM) | relative viability ([2]; first compound 8 µM) | relative viability ([3]; first compound 0.08 µM) | relative viability ([3]; first compound 0.253 µM) | relative viability ([3]; first compound 0.8 µM) | relative viability ([3]; first compound 2.53 µM) | relative viability ([3]; first compound 8 µM) | relative viability (Masitinib + Alpelisib; first compound 0.01 µM) | relative viability (Masitinib + Alpelisib; first compound 0.03162 µM) | relative viability (Masitinib + Alpelisib; first compound 0.1 µM) | relative viability (Masitinib + Alpelisib; first compound 0.3162 µM) | relative viability (Masitinib + Alpelisib; first compound 1 µM)
1 | NCI-H2342 | 0.44 | 0.403 | 0.505 | 0.377 | 0.523 | 0.623 | 0.588 | 0.65 | 0.5 | 0.607 | 0.533 | 0.423 | 0.573 | 0.476 | 0.505 | – | – | – | – | –
2 | NCI-H1793 | 0.366 | 0.487 | 0.522 | 0.789 | 0.407 | 0.238 | 0.25 | 0.315 | 0.249 | 0.217 | 0.298 | 0.335 | 0.27 | 0.242 | 0.21 | 0.846 | 0.683 | 0.878 | 0.82 | 0.636
3 | LU99A | 0.36 | 0.326 | 0.361 | 0.374 | 0.442 | 0.271 | 0.271 | 0.296 | 0.284 | 0.288 | 0.247 | 0.265 | 0.297 | 0.257 | 0.28 | 0.554 | 0.544 | 0.549 | 0.547 | 0.449
4 | HCC-366 | 0.32 | 0.322 | 0.266 | 0.24 | 0.128 | 0.723 | 0.744 | 0.959 | 0.833 | 0.461 | 0.126 | 0.0811 | 0.081 | 0.0599 | 0.0456 | 0.33 | 0.294 | 0.376 | 0.315 | 0.382
5 | 201T | 0.811 | 0.79 | 0.777 | 0.865 | 0.618 | 0.501 | 0.438 | 0.522 | 0.494 | 0.536 | 1.04 | 0.94 | 0.961 | 0.804 | 0.692 | 0.866 | 1.01 | 0.978 | 0.877 | 0.989
6 | HCC-827 | 0.352 | 0.418 | 0.53 | 0.216 | 0.28 | 0.702 | 0.755 | 0.693 | 0.809 | 0.732 | 0.415 | 0.392 | 0.45 | 0.409 | 0.391 | 0.91 | 0.994 | 1.1 | 0.928 | 0.997
7 | NCI-H650 | 0.766 | 0.896 | 1.05 | 0.926 | 0.999 | 0.509 | 0.511 | 0.544 | 0.475 | 0.578 | 0.654 | 0.646 | 0.78 | 0.645 | 0.727 | 1.14 | 1.03 | 1.17 | 1.31 | 1.08
8 | NCI-H2085 | 0.904 | 1.01 | 0.847 | 0.993 | 0.575 | 0.7 | 0.614 | 0.598 | 0.613 | 0.522 | 0.748 | 0.744 | 0.652 | 0.467 | 0.421 | 0.838 | 1 | 1.09 | 0.935 | 0.985
9 | NCI-H596 | 0.913 | 0.98 | 0.959 | 1.15 | 0.86 | 0.652 | 0.775 | 0.777 | 0.64 | 0.609 | 0.93 | 0.968 | 0.745 | 0.861 | 0.746 | 0.341 | 0.462 | 0.625 | 0.397 | 0.435
10 | SK-LU-1 | – | – | – | – | – | 0.32 | 0.374 | – | 0.348 | 0.273 | 0.301 | 0.293 | – | 0.32 | 0.302 | 1.12 | 1.14 | 0.984 | 1.31 | 1.03
11 | A-427 | 0.646 | 0.795 | 0.815 | 0.81 | 0.646 | 0.378 | 0.522 | 0.523 | 0.397 | 0.48 | 0.245 | 0.185 | 0.216 | 0.213 | 0.192 | – | 1.09 | – | 1.05 | 1.08
12 | NCI-H460 | 0.555 | 0.529 | 0.625 | 0.622 | 0.497 | 0.623 | 0.522 | 0.628 | 0.486 | 0.341 | 0.486 | 0.337 | 0.395 | 0.0737 | 0.113 | 0.479 | 0.522 | 0.521 | 0.429 | 0.471
13 | NCI-H1734 | 0.559 | 0.554 | 0.528 | 0.647 | 0.558 | 0.481 | 0.554 | 0.654 | 0.7 | 0.618 | 0.25 | 0.285 | 0.22 | 0.246 | 0.23 | 0.616 | 0.715 | 0.764 | 0.383 | 0.658
14 | NCI-H1915 | 0.755 | 0.665 | 0.689 | 0.686 | 0.667 | 0.598 | 0.61 | 0.602 | 0.575 | 0.587 | 0.455 | 0.442 | 0.411 | 0.367 | 0.404 | – | 1.06 | 1.07 | 1.04 | 1.07
15 | Calu-6 | – | – | – | – | – | – | – | – | – | – | – | – | – | – | – | 1.02 | 1.01 | 1.02 | 0.872 | 0.923
16 | SW 1573 | – | – | – | – | – | 0.569 | 0.593 | 0.723 | 0.561 | 0.536 | 0.184 | 0.168 | 0.279 | 0.154 | 0.185 | 0.89 | 0.768 | 0.873 | 0.831 | 0.66
17 | RERF-LC-KJ | 1.09 | 0.691 | 0.775 | 0.222 | 0.911 | 0.512 | 0.572 | 0.569 | 0.415 | 0.37 | 0.447 | 0.476 | 0.438 | 0.382 | 0.259 | 0.865 | 0.762 | 0.917 | 0.842 | 0.738
18 | EMC-BAC-2 | 0.933 | 1.02 | 1.14 | 0.909 | 1.17 | 0.356 | 0.383 | 0.385 | 0.375 | 0.378 | 0.261 | 0.286 | 0.287 | 0.285 | 0.323 | 0.701 | 0.714 | 0.841 | 0.767 | 0.783
